Earlier results, collected in patent EP1569663B1, “IFOSFAMIDE COMPOSITIONS FOR PARENTERAL ADMINISTRATION AND A PROCESS FOR THEIR PREPARATION” (Bharat Serums & Vaccines Ltd., priority 2002, dated 2004).

Assays:
[1] = in water
mouse = conditions: intravenous administration

In the case of `O=P1(NCCCl)OCCCN1CCCl` (centres unmarked) [Ifosfamide, 3-(2-chtoroethyl)-2-[(2-chloroethyl)amino]-tetrahydro-2H-1,3,2-oxazaphosphorin-2-oxide], the water solubility [1] is given as “about 100 mg/ml” and the LD50 (mouse) is given as 338 mg/kg body weight.
